Data on 17 compounds can be found in PubChem BioAssay (NCI).

Among the test systems are IGROV1 ovarian; HL-60(TB) leukemia; DU-145 prostate; OVCAR-4 ovarian; NCI-H226 lung; TK-10 renal; HCT-116 colon; UACC-62 melanoma; MDA-MB-435; SK-OV-3 ovarian; NCI-H23 lung; OVCAR-3 ovarian; HOP-62 NSCLC.
Holding throughout (test): growth of human tumour cells (NCI), 48 h

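Test compounds were applied to cells in 96-well plates for 48 hours at 5 doses. The concentration for full growth arrest is given as TGI.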

`N#Cc1c(-c2cccc(Br)c2)cc(-c2ccc(Cl)cc2)nc1N`: the TGI was 34.3 µM in the assay with IGROV1 ovarian; 69 µM in the assay with HL-60(TB) leukemia; greater than 100 µM in the assay on DU-145 prostate; 13.5 µM in the assay with OVCAR-4 ovarian; 38.1 µM in the assay on NCI-H226 lung; 45.2 µM in the assay with TK-10 renal. The TGI in the assay on HCT-116 colon amounted to 34.8 µM; in the assay on UACC-62 melanoma it was 29.2 µM; in the assay on MDA-MB-435, 38.2 µM; in the assay with SK-OV-3 ovarian it was 56.6 µM; in the assay with NCI-H23 lung, 71.7 µM; with OVCAR-3 ovarian, 77.3 µM. The compound also came in with a TGI in the assay with HOP-62 NSCLC of 79.1 µM.

With `COc1ccc2c(c1OC)C(Br)CCC(Br)(Br)C2=O` (stereo unspecified), the TGI in the assay with IGROV1 ovarian stood at 18.8 µM; in the assay on HL-60(TB) leukemia, 23.7 µM; in the assay with DU-145 prostate, 24.9 µM; in the assay with OVCAR-4 ovarian, 18.9 µM; in the assay with NCI-H226 lung it was 30.1 µM; in the assay on TK-10 renal, 19.4 µM. The TGI in the assay on HCT-116 colon turned out to be 17.3 µM; in the assay with UACC-62 melanoma, 27.7 µM; with MDA-MB-435 it was 19.3 µM; with SK-OV-3 ovarian it was 31.2 µM; in the assay on NCI-H23 lung, 22.8 µM; with OVCAR-3 ovarian it was 30.2 µM. Also, the TGI in the assay on HOP-62 NSCLC was 36.7 µM.

In the case of `Cc1cccc2c1CC(C1OC(=O)c3c(C)cccc31)C2=O` (stereo unspecified), the TGI in the assay with IGROV1 ovarian, in the assay on HL-60(TB) leukemia, in the assay on DU-145 prostate, in the assay on OVCAR-4 ovarian, in the assay with NCI-H226 lung and with TK-10 renal was greater than 100 µM each time. The TGI with HCT-116 colon, in the assay with UACC-62 melanoma, in the assay on MDA-MB-435, in the assay on SK-OV-3 ovarian, in the assay on NCI-H23 lung and in the assay with OVCAR-3 ovarian was greater than 100 µM throughout. In the assay with HOP-62 NSCLC, the TGI is greater than 100 µM.

Regarding `CC(SC(=S)N1CCCC1)C(=O)Nc1nnc(-c2ccc(Cl)cc2)o1` (stereo unspecified), the TGI in the assay with IGROV1 ovarian was greater than 100 µM; in the assay on HL-60(TB) leukemia it was 0.143 µM; with DU-145 prostate, greater than 100 µM; with OVCAR-4 ovarian, greater than 100 µM; in the assay with NCI-H226 lung, greater than 100 µM; with TK-10 renal it was greater than 100 µM. Further, the TGI was 50 µM with HCT-116 colon; greater than 100 µM in the assay with UACC-62 melanoma; greater than 100 µM in the assay on MDA-MB-435; greater than 100 µM in the assay on SK-OV-3 ovarian; greater than 100 µM in the assay on NCI-H23 lung; greater than 100 µM with OVCAR-3 ovarian. In the assay with HOP-62 NSCLC, this compound came in with a TGI greater than 100 µM.

In the case of `Cc1nc(C)c(N2CCN(C(=O)NC(CCC(=O)O)C(=O)O)CC2)c(=O)[nH]1` (stereo unspecified), the TGI in the assay with IGROV1 ovarian, in the assay with HL-60(TB) leukemia, in the assay with DU-145 prostate, in the assay on OVCAR-4 ovarian, in the assay on NCI-H226 lung and in the assay with TK-10 renal was greater than 100 µM each time. Further, the TGI in the assay on HCT-116 colon, in the assay on UACC-62 melanoma, in the assay with MDA-MB-435, in the assay on SK-OV-3 ovarian, with NCI-H23 lung and in the assay with OVCAR-3 ovarian was greater than 100 µM each time. In the assay with HOP-62 NSCLC, this compound had a TGI greater than 100 µM.

`CN(O)C(=O)c1ccc(OCc2cccc(Cl)c2)cc1`: the TGI in the assay with IGROV1 ovarian is greater than 100 µM; in the assay on HL-60(TB) leukemia, 22.2 µM; with DU-145 prostate, 98.2 µM; in the assay with OVCAR-4 ovarian, greater than 100 µM; with NCI-H226 lung, greater than 100 µM; in the assay with TK-10 renal it was greater than 100 µM. For the same compound, the TGI is greater than 100 µM in the assay with HCT-116 colon; greater than 79.4 µM with UACC-62 melanoma; greater than 100 µM in the assay with MDA-MB-435; greater than 100 µM in the assay on SK-OV-3 ovarian; greater than 100 µM in the assay on NCI-H23 lung; greater than 100 µM with OVCAR-3 ovarian. This compound also had a TGI in the assay with HOP-62 NSCLC greater than 100 µM.

As for `Cc1cccc(/C=N/NC(=S)NC2CCCCC2)n1`, the TGI in the assay on IGROV1 ovarian was greater than 100 µM; with HL-60(TB) leukemia, greater than 44.5 µM; in the assay on DU-145 prostate, greater than 100 µM; in the assay with OVCAR-4 ovarian, greater than 100 µM; with NCI-H226 lung it was greater than 74.8 µM; in the assay on TK-10 renal, greater than 100 µM. In addition, the TGI is 19.4 µM with HCT-116 colon; 59.2 µM in the assay with UACC-62 melanoma; greater than 100 µM with MDA-MB-435; greater than 100 µM in the assay on SK-OV-3 ovarian; greater than 100 µM in the assay with NCI-H23 lung; greater than 29.3 µM with OVCAR-3 ovarian. This compound also registered a TGI in the assay with HOP-62 NSCLC greater than 90.9 µM.

In the case of `COc1ccc(-c2cc(-c3ccccc3)c3c(n2)-c2ccccc2NC(=O)C3)cc1`, the TGI with IGROV1 ovarian was 52.6 µM; with HL-60(TB) leukemia, greater than 100 µM; in the assay with DU-145 prostate it was greater than 100 µM; with OVCAR-4 ovarian it was greater than 100 µM; with NCI-H226 lung it was greater than 100 µM; in the assay with TK-10 renal, greater than 100 µM. Also, the TGI in the assay on HCT-116 colon, with UACC-62 melanoma, in the assay with MDA-MB-435, in the assay on SK-OV-3 ovarian, in the assay on NCI-H23 lung and in the assay with OVCAR-3 ovarian was greater than 100 µM in each case. In the assay with HOP-62 NSCLC, the TGI was greater than 100 µM.

As to `CC1(C)C2CC1C(/C=N\OCC(=O)O)=CC2=O` (stereo unspecified), the TGI with IGROV1 ovarian, in the assay on HL-60(TB) leukemia, in the assay on DU-145 prostate, in the assay on OVCAR-4 ovarian, with NCI-H226 lung and with TK-10 renal was greater than 100 µM each time. Moreover, the TGI in the assay with HCT-116 colon, in the assay with UACC-62 melanoma, in the assay on MDA-MB-435, with SK-OV-3 ovarian, in the assay on NCI-H23 lung and with OVCAR-3 ovarian was greater than 100 µM throughout. In the assay on HOP-62 NSCLC, this compound registered a TGI greater than 100 µM.

For `Nc1c(O)c2c(c(O)c1Cl)C(=O)C=CC2=O`, the TGI with IGROV1 ovarian was 14 µM; in the assay with HL-60(TB) leukemia, 6.13 µM; with DU-145 prostate, 5.3 µM; in the assay with OVCAR-4 ovarian, 16.2 µM; with NCI-H226 lung, 34.3 µM; in the assay with TK-10 renal, 37 µM. Further, the TGI was 7.09 µM in the assay on HCT-116 colon; 3.05 µM in the assay on UACC-62 melanoma; 3.16 µM with MDA-MB-435; greater than 60.7 µM with SK-OV-3 ovarian; 4.89 µM in the assay with NCI-H23 lung; 6.02 µM in the assay on OVCAR-3 ovarian. Further, in the assay on HOP-62 NSCLC, the TGI worked out at 15.9 µM.

In the case of `COC(=O)C1=C(O)C(C(=O)OC)[C@]2(O)[C@H](C(=O)OC)[C@H]1C[C@@H](c1ccc(O)cc1)[C@H]2C(=O)OC` (stereo partly specified), the TGI in the assay on IGROV1 ovarian was greater than 100 µM; in the assay on HL-60(TB) leukemia, 95.1 µM; with DU-145 prostate, 71.6 µM; with OVCAR-4 ovarian, greater than 100 µM; with NCI-H226 lung it was greater than 100 µM; in the assay with TK-10 renal, 86.4 µM. Moreover, the TGI with HCT-116 colon was 94.3 µM; with UACC-62 melanoma, greater than 100 µM; in the assay with MDA-MB-435 it was greater than 100 µM; in the assay with SK-OV-3 ovarian it was 61.6 µM; with NCI-H23 lung, greater than 100 µM; in the assay with OVCAR-3 ovarian, 35.6 µM. In addition, in the assay with HOP-62 NSCLC, the TGI stood at 55.4 µM.

As to `COC(=O)CC(SCCO)SCCO`, the TGI in the assay with IGROV1 ovarian, in the assay on HL-60(TB) leukemia, in the assay on DU-145 prostate, in the assay on OVCAR-4 ovarian, in the assay on NCI-H226 lung and in the assay with TK-10 renal was greater than 100 µM in each case. Besides, the TGI in the assay on HCT-116 colon, with UACC-62 melanoma, in the assay on MDA-MB-435, with SK-OV-3 ovarian, with NCI-H23 lung and in the assay with OVCAR-3 ovarian was greater than 100 µM each time. Further, the TGI in the assay with HOP-62 NSCLC is greater than 100 µM.

Consider `COC(=O)C1=C(O)C(C(=O)OC)[C@]2(O)[C@H](C(=O)OC)[C@H]1C[C@@H](c1ccc(Cl)cc1Cl)[C@H]2C(=O)OC` (stereo partly specified), for which the TGI was 19.3 µM in the assay with IGROV1 ovarian; 7.9 µM in the assay with HL-60(TB) leukemia; 25.7 µM in the assay with DU-145 prostate; 67.6 µM with OVCAR-4 ovarian; 16.3 µM in the assay with NCI-H226 lung; 26.2 µM with TK-10 renal. In addition, the TGI came to 18.9 µM in the assay with HCT-116 colon; 35.3 µM in the assay on UACC-62 melanoma; 21.2 µM in the assay on MDA-MB-435; 47.9 µM with SK-OV-3 ovarian; 19.1 µM with NCI-H23 lung; 24.9 µM with OVCAR-3 ovarian. In addition, the TGI in the assay with HOP-62 NSCLC worked out at 20.9 µM.

Regarding `CC(C)(C)c1cc(C(C)(C)C)c(P=C(Cl)Cl)c(C(C)(C)C)c1` (stereo unspecified), the TGI with IGROV1 ovarian, in the assay with HL-60(TB) leukemia, with DU-145 prostate, with OVCAR-4 ovarian, with NCI-H226 lung and in the assay with TK-10 renal was greater than 100 µM throughout. For the same compound, the TGI in the assay with HCT-116 colon, in the assay on UACC-62 melanoma, with MDA-MB-435, in the assay on SK-OV-3 ovarian, with NCI-H23 lung and in the assay on OVCAR-3 ovarian was greater than 100 µM in each case. The compound also came in with a TGI with HOP-62 NSCLC greater than 100 µM.

Consider `Cc1nc2ccc(S(=O)(=O)Nc3ccccn3)cc2c(=O)n1NS(=O)(=O)c1ccccn1`, for which the TGI with IGROV1 ovarian, with HL-60(TB) leukemia, with DU-145 prostate, in the assay on OVCAR-4 ovarian, with NCI-H226 lung and in the assay on TK-10 renal was greater than 100 µM in each case. Also, the TGI with HCT-116 colon, with UACC-62 melanoma, in the assay with MDA-MB-435, with SK-OV-3 ovarian, with NCI-H23 lung and in the assay with OVCAR-3 ovarian was greater than 100 µM in each case. The same compound displayed a TGI with HOP-62 NSCLC greater than 100 µM.

As for `COC1/C=C/C(C)C(C(C)C(OC)C(C)CCC(=O)C(C)C(CC(=O)O)OC)OC(=O)/C=C/C=C(\C)CC(OC)C(OC)C2=CC(=O)O[C@@H](C(C)C(OC)CC(OC)/C=C/C(C)C(O)C1)[C@H]2O` (stereo partly specified), the TGI was 0.0297 µM in the assay with IGROV1 ovarian; 0.074 µM in the assay with HL-60(TB) leukemia; greater than 1.07 µM with DU-145 prostate; greater than 1.07 µM in the assay on OVCAR-4 ovarian; 0.127 µM in the assay with NCI-H226 lung; 0.306 µM in the assay on TK-10 renal. Moreover, the TGI with HCT-116 colon was 0.227 µM; in the assay on UACC-62 melanoma, greater than 1.07 µM; in the assay with MDA-MB-435, 1.02 µM; in the assay on SK-OV-3 ovarian, 0.289 µM; in the assay on NCI-H23 lung, 0.722 µM; in the assay on OVCAR-3 ovarian it was greater than 1.07 µM. Also, in the assay with HOP-62 NSCLC, the TGI is 0.468 µM.

For `CN(C)c1ccc(/C=C(\NC(=O)c2ccccc2)c2nc3ccccc3c(=O)o2)cc1`, the TGI in the assay on IGROV1 ovarian, in the assay on HL-60(TB) leukemia, in the assay with DU-145 prostate, in the assay with OVCAR-4 ovarian, in the assay with NCI-H226 lung and in the assay with TK-10 renal was greater than 100 µM each time. Also, the TGI in the assay on HCT-116 colon, in the assay on UACC-62 melanoma, in the assay with MDA-MB-435, in the assay on SK-OV-3 ovarian, in the assay with NCI-H23 lung and in the assay on OVCAR-3 ovarian was greater than 100 µM each time. Besides, the TGI with HOP-62 NSCLC is greater than 100 µM.
